Columns and labels:
DAOY-SLCs [1] = experiment: Western Blot of H3K27me3 and PCNA in DAOY-SLCs; assay type: cell-based; conditions: 5 μM, 48 h
Procedure: (§1) To evaluate cell viability cells were plated at a density of 5×10^3 cells/well in 96-well plates and were incubated with MTS solution (CellTiter 96® AQueous One Solution Promega).
(§2) Western blots were performed according to standard procedures. Briefly, protein lysates were prepared using RIPA buffer with fresh protease inhibitors. Lysates were separated on SDS polyacrylamide gels. Proteins were transferred on nitrocellulose membrane (0.45 micron) (PerkinElmer). Membranes were blocked for 1 h at room temperature in 5% nonfat dry milk and incubated overnight at 4°C with antibodies against EZH2 (4905S Cell signaling), H3K27me3 (07-449 Millipore), PCNA (2586 Cell signaling), ACTIN (I-19 sc-1616; Santa Cruz Biotechnology), GAPDH (ab9484, Abcam), cleaved CSP-3 (D-175 9661S; Cell Signaling) and H3 (ab1971, Abcam). HRP-conjugated secondary antibodies (Santa Cruz Biotechnology) were used in combination with enhanced chemiluminescence (ECL Amersham).

hMB-SLCs [2] = experiment: Western Blot of H3K27me3, PCNA, cleaved caspase 3 in hMB-SLCs; assay type: cell-based, human; conditions: 5 μM, 48 h
Procedure: as §1, §2

DAOY-SLCs [3] = experiment: Cell viability, MTS assay, DAOY-SLCs; assay type: cell-based; conditions: 5 μM, after 72 h
Procedure: as §1

DAOY cells = experiment: Western Blot of H3K27me3 and PCNA in DAOY cells; assay type: cell-based; conditions: 5 μM, 48 h
Procedure: as §1, §2

mMB-SLCs [4] = experiment: Self-renewal, clonogenic assay, mMB-SLCs; assay type: cell-based, mouse; conditions: 5 μM
Procedure: (§3) For self-renewal assessment, clonogenic assay was performed as previously described. Briefly: oncospheres were disaggregated with non-enzymatic cell dissociation buffer (Sigma) and cells were plated at clonal density (1-2 cells/mm^2) into 96-well plates and cultured for an appropriate number of days (7-15) until oncospheres were countable.

[5] = PAMPA-BBB (porcine brain lipid extract artificial membrane); assay type: in vitro ADME; conditions: for Papp at 24 h: Pe in cm/s, pH 7.4, 24 h, room temperature, triplicate, read-out: Log Pe (converted)
Procedure: Donor solution (500 μM or 250 μM) was prepared by diluting 10 or 5 mM DMSO compound stock solution using phosphate buffer (pH 7.4, 0.01 M). Filter membrane was coated with 5 μl of BBB-specific lipid solution prepared dissolving 16 mg of PBL (Avanti Lipids Polar, 141101P) in 600 μl of n-dodecane. Donor solution (150 μl) was added to each well of the filter plate. To each well of the acceptor plate 300 μl of solution (5% DMSO in phosphate buffer) were added. Each compound was tested in triplicate. The sandwich was incubated for 24 h at room temperature under gentle shaking. After the incubation time, the sandwich plates were separated and 250 μl of the acceptor plate were transferred to a UV quartz microtiter plate and measured by UV spectroscopy, using a Multiskan GO microplate spectrophotometer (Thermo Scientific) at 250−500 nm at step of 5 nm. Reference solutions (250 μl) were prepared diluting the sample stock solutions to the same concentration as that with no membrane barrier. The BBB permeability value Log Pe is determined applying the equation:
log Pe= log{C⋅(−ln(1−[drug]acceptor/[drug]equilibrium))},
where C=(VD⋅VA/(VD+VA)area⋅time)
In this equation, VA is the volume of the acceptor compartment (0.3 cm^3), VD is the donor volume (0.15 cm^3), area is the accessible filter area (0.24 cm^2), and time is the incubation time in seconds.

hMB-SLCs [6] = experiment: Self-renewal, clonogenic assay, hMB-SLCs; assay type: cell-based, human; conditions: 5 μM
Procedure: as §3

mMB-SLCs [7] = experiment: Western Blot of H3K27me3, PCNA, cleaved caspase 3 in mMB-SLCs; assay type: cell-based, mouse; conditions: mMB-SLCs, 5 μM, 48 h
Procedure: Afterwards, we tested the ability of MC3629 (at 0.5, 5, and 25 μM) to inhibit the EZH2 enzymatic activity on a cell-based assay in vitro. The lower significant MC3629 dosage to decrease the H3K27me3 level in MB-SLCs was 5 μM (Figure 2C).
as §1, §2

Papp at 24 h [5] | Δ Log Pe ([5]; respect to propranolol) | SMILES | H3K27me3 and PCNA levels (DAOY-SLCs [1]) | H3K27me3 and PCNA protein levels (hMB-SLCs [2]) | cell viability (DAOY-SLCs [3]) | H3K27me3 and PCNA levels (DAOY cells) | self-renewal (mMB-SLCs [4]) | self-renewal (hMB-SLCs [6]) | H3K27me3 and PCNA protein levels (mMB-SLCs [7])
3.89 ×10⁻⁶ cm/s | −0.20 | CC[C@H](C)n1cc(C)c2c(C(=O)NCc3c(C)cc(C)[nH]c3=O)cc(-c3ccc(N4CCNCC4)nc3)cc21 [GSK2816126, reference compound] | down modulated | significantly impaired | significantly impair | impaired only by MC3629 | significantly reduced | significantly reduced | significantly impaired
6.17 ×10⁻⁶ cm/s |  | CC(C)NCC(O)COc1cccc2ccccc12 (stereo not shown) [propranolol] |  |  |  |  |  |  | 

— PMC5620277, “The histone methyltransferase EZH2 as a druggable target in SHH medulloblastoma cancer stem cells” (Oncotarget, 2017)
